Reference: paper PMC4125290, “Cyclic di-GMP-dependent Signaling Pathways in the Pathogenic Firmicute Listeria monocytogenes” (PLoS Pathogens, 2014)

Key:
Assay in all cases: HPLC of c-di-GMP hydrolysis to pGpG
Assay type in all cases: biochemical
Settings in all cases: 250 µM c-di-GMP, 1-5 µM enzyme, 37°C
[1] = target: T1, PdeD (Lmo0111), PdeD::His6 (Listeria monocytogenes, UniProt Q8YAK7)
T1 construct: tag kept

[2] = target: T2, PdeC (Lmo1914), MBP::PdeC (Listeria monocytogenes, UniProt Q8Y5Y9)
T2 construct: MBP fusion (pMAL-c2x), E. coli DH5alpha, amylose resin; MBP kept

[3] = target: T3, PdeB (Lmo0131), PdeB::His6 (Listeria monocytogenes, UniProt Q8YAJ4)
T3 construct: tag kept
T3 sequence (Q8YAJ4 entry or part of it): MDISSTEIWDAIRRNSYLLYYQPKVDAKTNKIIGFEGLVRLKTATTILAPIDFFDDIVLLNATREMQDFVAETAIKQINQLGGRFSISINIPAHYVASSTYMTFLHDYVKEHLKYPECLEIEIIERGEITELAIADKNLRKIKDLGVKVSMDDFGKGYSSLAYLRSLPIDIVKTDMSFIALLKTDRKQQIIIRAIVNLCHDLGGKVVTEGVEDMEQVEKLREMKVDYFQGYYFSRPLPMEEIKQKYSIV

T1 sequence (Q8YAK7 entry or part of it): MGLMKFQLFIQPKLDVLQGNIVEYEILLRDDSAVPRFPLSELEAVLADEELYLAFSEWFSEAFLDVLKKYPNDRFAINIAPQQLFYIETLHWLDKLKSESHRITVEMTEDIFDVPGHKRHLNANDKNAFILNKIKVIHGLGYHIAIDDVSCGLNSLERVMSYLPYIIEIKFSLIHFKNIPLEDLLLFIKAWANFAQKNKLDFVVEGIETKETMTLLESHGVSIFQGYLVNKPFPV
T2 sequence (Q8Y5Y9 entry or part of it): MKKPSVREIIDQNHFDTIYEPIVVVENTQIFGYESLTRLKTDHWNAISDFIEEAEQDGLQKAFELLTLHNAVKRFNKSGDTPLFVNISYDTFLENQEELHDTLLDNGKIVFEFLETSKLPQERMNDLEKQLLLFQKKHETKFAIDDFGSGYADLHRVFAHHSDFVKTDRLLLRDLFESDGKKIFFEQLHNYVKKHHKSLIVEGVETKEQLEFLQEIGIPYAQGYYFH

Nc1nc2c(ncn2[C@@H]2O[C@@H]3COP(=O)(O)O[C@H]4[C@@H](O)[C@H](n5cnc6c(=O)[nH]c(N)nc65)O[C@@H]4COP(=O)(O)O[C@H]3[C@H]2O)c(=O)[nH]1 [c-di-GMP]
HPLC of c-di-GMP hydrolysis to pGpG [1]: all three recombinant proteins possess c-di-GMP PDE activities in vitro
HPLC of c-di-GMP hydrolysis to pGpG [2]: all three recombinant proteins possess c-di-GMP PDE activities in vitro
HPLC of c-di-GMP hydrolysis to pGpG [3]: all three recombinant proteins possess c-di-GMP PDE activities in vitro
